Assay results from paper PMC4697807, “Novel Zn^2+ Modulated GPR39 Receptor Agonists Do Not Drive Acute Insulin Secretion in Rodents” (PLoS ONE, 2015).
pEC50: −log10 of the molar value. Read-outs that look alike come from different tables or passages of the source.

Key:
mGPR39 = molecular target: T1, mGPR39 (Mus musculus, UniProt Q5U431); assay: DMR label-free assay, HEK293s cells transfected with mouse GPR39; assay type: cell-based; details: for pEC50: read-out: EC50; for EC50: read-out: pEC50 ± SD (converted); for Efficacy at 33 μM: AZ1395 100% reference
T1 construct: Full length human (AF034633), rat (DM091294) and mouse (BC085285) GPR39; expressed in transfected cells; host or cells: HEK293s (ATCC CRL-1573), pIRESneo3 vector, selected clones
T1 sequence (Q5U431 1-456): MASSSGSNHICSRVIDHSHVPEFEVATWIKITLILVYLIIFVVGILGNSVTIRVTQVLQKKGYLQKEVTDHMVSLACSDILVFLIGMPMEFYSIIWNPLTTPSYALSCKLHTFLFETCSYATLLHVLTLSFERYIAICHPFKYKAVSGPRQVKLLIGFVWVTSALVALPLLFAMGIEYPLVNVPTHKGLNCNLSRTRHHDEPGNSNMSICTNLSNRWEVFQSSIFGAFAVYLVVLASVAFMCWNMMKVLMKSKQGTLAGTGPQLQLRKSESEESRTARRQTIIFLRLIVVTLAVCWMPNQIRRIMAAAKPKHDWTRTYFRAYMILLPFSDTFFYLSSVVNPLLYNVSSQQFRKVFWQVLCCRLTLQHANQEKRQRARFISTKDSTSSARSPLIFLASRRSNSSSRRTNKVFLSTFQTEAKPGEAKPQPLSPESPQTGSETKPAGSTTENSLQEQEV
From the text: Full length human (AF034633), rat (DM091294) and mouse (BC085285) GPR39 (GeneArt–Life Technologies, Carlsbad, CA) were subcloned into the pIRESneo3 vector (Clontech, Mountain View, CA). The resulting expression vectors hGPR39-, rGPR39- and mGPR39-pIRESneo3 were transfected into HEK293s cells (ATCC CRL-1573) using Lipofectamine 2000 (Life Technologies). Individual clones were isolated using flow cytometry with a FACSVantage SE DIVA (Becton Dickinson, Franklin Lakes, NJ) and clones were chosen based on responses to Zn^2+ measured in a cAMP assay (see below). […] HEK293s-derived cell lines were cultured at 37°C, 10% CO2 and 95% humidity in DMEM supplemented with 10% FBS and 600 μg/ml Geneticin (Life Technologies). The mouse pancreas epithelial cell line NIT-1 (ATCC CRL-2055) with endogenous expression of GPR39 was cultured at 37°C, 5% CO2, and 95% humidity in Ham´s F12 (Life Technologies) supplemented with 10% FBS.
DMR assays were performed using an Epic instrument (Corning Inc., Corning, NY). 12,000 cells per well were cultured for 24 h in 384-well fibronectin-coated Epic biosensor plates (Corning). On the day of experiment, culture medium was removed and replaced with 30 μl buffer A (HBSS, HEPES 20 mM pH7.4, 1% DMSO, 0.01% BSA) using an EL406 (Bio-Tek). Plates were incubated at 26 °C for 1 h inside the Epic to allow for temperature equilibration. A baseline was read for 2 min, and then 15 μl compounds in buffer A were added using a CyBi-Well vario (CyBio) and DMR was detected during 45 min.
Concentration response data were fitted with a four parameter logistic fit using Eq 1, y=A+((B−A)/1+((C/x)^D))) (1) where A is no activation, B is full activation, C is the EC50 and D is the Hill slope.

INS-1E cells = assay: Glucose stimulated insulin secretion (GSIS) in INS-1E cells; assay type: cell-based, rat; details: for effect on GSIS: 1, 3 and 10 μM compound, 11.1 mM glucose; for unbound concentration yielding significant increases in GSIS (highest unbound concentration): free fraction calculated for 0.1% BSA
Experimental: INS-1E cells obtained from Dr. Wollheim (Univ. Geneva, Switzerland), were grown in Roswell Park Memorial Institute medium (RPMI) 1640 (Life technologies) supplemented with 5% of fetal bovine serum (Thermo Fischer Scientific, Inc. Waltham, MA). At 4 or 5 days before the assay, cells were plated in 24-well plates at 2 × 10^5 cells /well. At the day of the assay, cells were washed twice by Krebs-Ringer bicarbonate (KRB) buffer containing 0.1% BSA (pH7.4) and pre-incubated at 37°C for 30 min. The cells were washed twice again, and the buffer was replaced by KRB buffer containing 0, 1, 3 and 10 μM of compounds and 11.1 mM of glucose. In order to examine whether Zn^2+ has an enhancing effect on the activity of each compound, 20 μM of Zn^2+ was added in the incubation buffer as necessary. After cells were stimulated at 37°C for 1 h, the reaction was terminated by placing on ice. The buffer was collected from each well and precipitated (1000 rpm for 2 min at 25°C) in order to be separated from the cells. For each sample, concentration of insulin was measured using HTRF insulin kit (Cisbio).
The free fraction in the INS-1E assay, containing 0.1% w/w BSA, was calculated by using the equilibrium conditions of a single binding site model as in Eq 3.
The free fraction in mouse plasma corresponds to 1—CP/Ptot.

C57BL/6J mice = assay: Intraperitoneal glucose tolerance test (IPGTT) in C57BL/6J mice; assay type: in vivo, mouse; details: 30 and 100 mg/kg IP, 30 min before 1.5 g/kg glucose IP; fasted lean mice
From the text: Six-week-old male C57BL/6J mice were purchased from CLEA (Tokyo, Japan). Fourteen-week-old and fifteen-week-old male DIO mice were purchase from Charles River Japan (Yokohama, Japan). They were used after at least one week acclimation period. C57BL/6J mice were allowed free access to a normal diet (CRF-1, Oriental Yeast, Tokyo, Japan). DIO mice were allowed free access to a high-fat diet with 60 kcal% fat (D12492, Research Diets, New Brunswick, NJ). They were kept under standard 12-h light/dark cycle. Animal experiments were approved by the Institutional Animal Care and Use Committee of Mitsubishi Tanabe Pharma Corporation.
Seven-week-old and eight-week-old C57BL/6J mice were used. Mice were fasted overnight and were randomly grouped. Five ml/kg of a solution of vehicle (10% dimethylformamide (DMF)/18% Cremophore) or compounds were intraperitoneally (IP) administered. Thirty min later, 1.5 g/20 ml/kg of glucose solution was IP administered. […] Plasma glucose was measured using Glucose CII Test Wako Kit (Wako Pure Chemical Industries, Osaka, Japan). Plasma insulin was measured using Ultra Sensitive Mouse Insulin ELISA Kit (Morinaga, Yokohama, Japan).
Statistical analysis was performed using SAS9.1.3 with student’s t-test or Dunnett’s test. All data were expressed as mean ± standard error of mean (SEM). […]

Compound	pEC50 (mGPR39; absence (w/o) of Zn^2+)	EC50 (mGPR39; absence (w/o) of Zn^2+)	EC50 (mGPR39; presence of 5 μM Zn^2+)	effect on GSIS (INS-1E cells; absence of Zn^2+)	effect on GSIS (INS-1E cells; presence of 20 μM Zn^2+)	unbound concentration yielding significant increases in GSIS (highest unbound concentration) (INS-1E cells)	Efficacy at 33 μM (mGPR39; absence (w/o) of Zn^2+)	insulinotropic effect (C57BL/6J mice)	pEC50 (mGPR39; presence of 5 μM Zn^2+)
N#Cc1ccc(OCCn2ccnc2)c(OCCn2ccnc2)c1 [AZ1395, 3,4-bis-(2-imidazol-1-ylethoxy)-benzonitrile]	5.00	10500 nM	166 nM	–	–	–	–	–	–
Cc1nc(-c2nc3c(c(=O)[nH]2)CN(C(=O)c2cccc(Cl)c2F)CC3)cs1 [AZ7914, 6-(3-chloro-2-fluoro-benzoyl)-2-(2-methylthiazol-4-yl)-3,5,7,8-tetrahydropyrido-[4,3-d]pyrimidin-4-one]	< 4.48	–	316 nM	no effects	dose dependent GSIS increases	8.4 µM	42%	did not elicit insulinotropic effects in vivo	–
Cc1nc2c(C(=O)O)cnn2c(O)c1Cc1ccc(Cl)cc1 [AZ4237, 6-[(4-chlorophenyl)methyl]-7-hydroxy-5-methyl-pyrazolo[1,5-a]pyrimidine-3-carboxylic acid]	< 4.48	–	457 nM	no effects	dose dependent GSIS increases	7.2 µM	12%	did not elicit insulinotropic effects in vivo	6.35
